Laboratory results from patent US20090105305A1, “Therapeutic Agents - 550” (AstraZeneca AB, priority 2006, published 2009).

Target: T1, human Fatty Acid Synthase (Homo sapiens, UniProt P49327)
T1 construct: made in house
Experiment: Human FAS enzyme assay (decrease in NADPH fluorescence)
Format: biochemical
Settings: % inhibition at a concentration of 100 micromolar
In short: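 In-house human FAS (0.4 μg) was preincubated 15 min at RT with compound and NADPH (added at 166.6 μM) in 0.1 M Tris pH 7.5, 1 mM glutathione, 0.05% BSA. Malonyl-/acetyl-CoA (500/150 μM in substrate mix) was then added for 60 min. Readout was NADPH fluorescence loss (ex 340/em 460) over a time-zero read, with IC50 from a sigmoid fit.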

T1 sequence (P49327 whole entry): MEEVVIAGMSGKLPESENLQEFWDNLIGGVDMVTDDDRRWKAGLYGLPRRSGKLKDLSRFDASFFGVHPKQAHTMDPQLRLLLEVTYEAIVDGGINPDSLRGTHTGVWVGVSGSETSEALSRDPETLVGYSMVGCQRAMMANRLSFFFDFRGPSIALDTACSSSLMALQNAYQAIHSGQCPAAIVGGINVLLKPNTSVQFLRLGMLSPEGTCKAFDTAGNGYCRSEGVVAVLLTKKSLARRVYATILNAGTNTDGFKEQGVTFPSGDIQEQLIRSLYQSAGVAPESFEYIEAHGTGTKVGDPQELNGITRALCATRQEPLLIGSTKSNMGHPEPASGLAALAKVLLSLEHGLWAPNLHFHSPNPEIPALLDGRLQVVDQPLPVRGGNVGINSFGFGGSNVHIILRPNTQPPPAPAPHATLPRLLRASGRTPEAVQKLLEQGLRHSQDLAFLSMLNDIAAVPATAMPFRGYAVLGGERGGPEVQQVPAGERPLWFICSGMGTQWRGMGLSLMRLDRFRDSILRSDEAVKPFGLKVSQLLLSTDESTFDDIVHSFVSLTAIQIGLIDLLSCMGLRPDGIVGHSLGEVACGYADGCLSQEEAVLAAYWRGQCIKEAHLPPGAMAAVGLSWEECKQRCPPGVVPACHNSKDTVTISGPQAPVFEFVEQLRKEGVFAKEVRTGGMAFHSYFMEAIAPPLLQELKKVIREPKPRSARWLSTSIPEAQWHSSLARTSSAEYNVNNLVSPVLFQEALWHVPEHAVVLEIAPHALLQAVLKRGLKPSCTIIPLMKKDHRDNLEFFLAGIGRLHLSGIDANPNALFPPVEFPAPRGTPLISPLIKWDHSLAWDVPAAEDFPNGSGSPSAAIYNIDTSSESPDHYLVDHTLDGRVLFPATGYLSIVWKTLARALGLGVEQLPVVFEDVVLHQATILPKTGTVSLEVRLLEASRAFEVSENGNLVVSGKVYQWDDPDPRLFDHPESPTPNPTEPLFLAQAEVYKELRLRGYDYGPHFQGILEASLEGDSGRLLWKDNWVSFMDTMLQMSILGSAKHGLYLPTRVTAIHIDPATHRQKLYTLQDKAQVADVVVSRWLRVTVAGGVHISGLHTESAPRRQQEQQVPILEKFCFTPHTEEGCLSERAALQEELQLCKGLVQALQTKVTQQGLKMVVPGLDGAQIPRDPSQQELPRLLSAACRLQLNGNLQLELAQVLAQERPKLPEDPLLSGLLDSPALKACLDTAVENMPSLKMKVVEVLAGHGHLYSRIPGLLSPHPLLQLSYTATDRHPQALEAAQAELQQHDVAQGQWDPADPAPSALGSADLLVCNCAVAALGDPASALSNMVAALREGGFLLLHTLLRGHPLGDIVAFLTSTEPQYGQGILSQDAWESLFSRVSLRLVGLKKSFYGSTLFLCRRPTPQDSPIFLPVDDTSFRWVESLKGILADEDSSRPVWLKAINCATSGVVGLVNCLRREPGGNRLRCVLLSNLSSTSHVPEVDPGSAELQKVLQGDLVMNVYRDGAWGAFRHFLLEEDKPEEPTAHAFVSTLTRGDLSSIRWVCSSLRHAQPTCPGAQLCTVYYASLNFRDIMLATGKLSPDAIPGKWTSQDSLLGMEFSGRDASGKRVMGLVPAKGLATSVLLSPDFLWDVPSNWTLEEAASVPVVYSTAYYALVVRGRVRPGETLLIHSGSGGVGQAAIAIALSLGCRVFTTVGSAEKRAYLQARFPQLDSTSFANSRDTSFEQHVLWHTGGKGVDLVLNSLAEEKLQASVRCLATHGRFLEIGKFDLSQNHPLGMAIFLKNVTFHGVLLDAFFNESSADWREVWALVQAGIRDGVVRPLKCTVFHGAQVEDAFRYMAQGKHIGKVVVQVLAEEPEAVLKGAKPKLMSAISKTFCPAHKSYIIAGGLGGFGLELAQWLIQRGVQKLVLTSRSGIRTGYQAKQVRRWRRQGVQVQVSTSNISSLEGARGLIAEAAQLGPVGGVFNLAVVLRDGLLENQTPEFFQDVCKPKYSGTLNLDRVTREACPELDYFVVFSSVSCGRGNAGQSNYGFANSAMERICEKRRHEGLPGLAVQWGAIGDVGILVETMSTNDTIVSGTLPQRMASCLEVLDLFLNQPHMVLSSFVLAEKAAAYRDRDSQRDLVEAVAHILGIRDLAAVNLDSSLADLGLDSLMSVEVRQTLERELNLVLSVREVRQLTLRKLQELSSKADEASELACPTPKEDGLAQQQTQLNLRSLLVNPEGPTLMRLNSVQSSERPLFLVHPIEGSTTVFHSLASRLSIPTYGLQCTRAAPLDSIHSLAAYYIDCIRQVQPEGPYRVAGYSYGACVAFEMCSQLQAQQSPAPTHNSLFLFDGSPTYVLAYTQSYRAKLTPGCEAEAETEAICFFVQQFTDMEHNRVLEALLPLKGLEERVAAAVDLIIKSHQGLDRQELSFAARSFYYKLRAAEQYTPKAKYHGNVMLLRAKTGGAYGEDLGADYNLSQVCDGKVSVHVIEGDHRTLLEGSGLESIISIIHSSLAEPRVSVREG

inhibition at 100 µM [%]	SMILES
85	Cc1ccc(C(=O)N2CCC(c3ccc(-c4ncon4)cc3)CC2)cc1NS(C)(=O)=O [Example 171, N-[2-methyl-5-[4-[4-(1,2,4-oxadiazol-3-yl)phenyl]piperidine-1-carbonyl]phenyl]methanesulfonamide]
85	C#Cc1ccc(C2CCN(C(=O)c3ccc(C)c(NS(C)(=O)=O)c3)CC2)cc1 [Example 172, N-[5-[4-(4-ethynylphenyl)piperidine-1-carbonyl]-2-methylphenyl]methanesulfonamide]
64	Cc1ccc(C(=O)N2CCC(c3ccc(-c4ccccn4)cc3)CC2)cc1NS(C)(=O)=O [Example 173, N-[2-methyl-5-[4-(4-pyridin-2-ylphenyl)piperidine-1-carbonyl]phenyl]methanesulfonamide]
92	Cc1ccc(C(=O)N2CCC(c3ccc(-c4cnccn4)cc3)CC2)cc1NS(C)(=O)=O [Example 174, N-[2-methyl-5-[4-(4-pyrazin-2-ylphenyl)piperidine-1-carbonyl]phenyl]methanesulfonamide]
71	Cc1ccc(C(=O)N2CCC(c3ccc(-c4ccccc4)cc3)CC2)cc1NS(C)(=O)=O [Example 175, N-[2-methyl-5-[4-(4-phenylphenyl)piperidine-1-carbonyl]phenyl]methanesulfonamide]
78	CSCc1ccc(C(=O)N2CCC(c3ccc(C#N)cc3)CC2)cc1NS(C)(=O)=O [Example 176, N-[5-[4-(4-cyanophenyl)piperidine-1-carbonyl]-2-(methylsulfanylmethyl)phenyl]methanesulfonamide]
91	Cc1ccc(C(=O)N2CCC(c3ccc(C(F)(F)F)cc3)CC2)cc1NS(=O)(=O)C1CCS(=O)(=O)C1 (stereo not drawn) [Example 177, N-[2-methyl-5-[4-[4-(trifluoromethyl)phenyl]piperidine-1-carbonyl]phenyl]-1,1-dioxothiolane-3-sulfonamide]
81	COc1cc(C2CCN(C(=O)c3ccc(C)c(NS(C)(=O)=O)c3)CC2)ccc1C#N [Example 178, N-[5-[4-(4-cyano-3-methoxyphenyl)piperidine-1-carbonyl]-2-methylphenyl]methanesulfonamide]
85	Cc1ccc(C(=O)N2CCC(c3ccc(C#N)c(F)c3)CC2)cc1NS(C)(=O)=O [Example 179, N-[5-[4-(4-cyano-3-fluorophenyl)piperidine-1-carbonyl]-2-methylphenyl]methanesulfonamide]
96	Cc1ccc(C(=O)N2CCC(c3ccc(OC(F)(F)F)cc3)CC2)cc1NS(C)(=O)=O [Example 180, N-[2-methyl-5-[4-[4-(trifluoromethoxy)phenyl]piperidine-1-carbonyl]phenyl]methanesulfonamide]
100	Cc1ccc(C(=O)N2CCC(c3ccc(OCC#N)cc3)CC2)cc1NS(C)(=O)=O [Example 181, N-[5-[4-[4-(cyanomethoxy)phenyl]piperidine-1-carbonyl]-2-methylphenyl]methanesulfonamide]
80	Cc1ccc(C(=O)N2CCC(c3ccc([S+](C)[O-])cc3)CC2)cc1NS(C)(=O)=O (stereo not drawn) [Example 182, N-[2-methyl-5-[4-(4-methylsulfinylphenyl)piperidine-1-carbonyl]phenyl]methanesulfonamide]
90	CNS(=O)(=O)c1ccc(C2CCN(C(=O)c3ccc(C)c(NS(C)(=O)=O)c3)CC2)cc1 [Example 183, 4-[1-(3-methanesulfonamido-4-methylbenzoyl)piperidin-4-yl]-N-methylbenzenesulfonamide]
84	Cc1ccc(C(=O)N2CCC(c3ccc(C(=O)NC4CC4)cc3)CC2)cc1NS(C)(=O)=O [Example 184, N-cyclopropyl-4-[1-(3-methanesulfonamido-4-methylbenzoyl)piperidin-4-yl]benzamide]
80	Cc1ccc(C(=O)N2CCC(c3ccc(OS(C)(=O)=O)cc3)CC2)cc1NS(C)(=O)=O [Example 185, [4-[1-(3-methanesulfonamido-4-methylbenzoyl)piperidin-4-yl]phenyl]methanesulfonate]
99	Cc1ccc(C(=O)N2CCC(c3ccc(S(N)(=O)=O)cc3)CC2)cc1NS(C)(=O)=O [Example 186, 4-[1-(3-methanesulfonamido-4-methylbenzoyl)piperidin-4-yl]benzenesulfonamide]
100	Cc1ccc(C(=O)N2CCC(c3ccc(Oc4ccccn4)cc3)CC2)cc1NS(C)(=O)=O [Example 187, N-[2-methyl-5-[4-(4-pyridin-2-yloxyphenyl)piperidine-1-carbonyl]phenyl]methanesulfonamide]
110	Cc1ccc(C(=O)N2CCC(c3ccc(C(=O)c4nccs4)cc3)CC2)cc1NS(C)(=O)=O [Example 188, N-[2-methyl-5-[4-[4-(1,3-thiazole-2-carbonyl)phenyl]piperidine-1-carbonyl]phenyl]methanesulfonamide]

inhibition at 100 µM [%]	SMILES
88	Cc1ccc(C(=O)N2CCC(c3ccc(Oc4nccc(C(F)(F)F)n4)cc3)CC2)cc1NS(C)(=O)=O [Example 189, N-[2-methyl-5-[4-[4-[4-(trifluoromethyl)pyrimidin-2-yl]oxyphenyl]piperidine-1-carbonyl]phenyl]methanesulfonamide]
88	Cc1ccc(C(=O)N2CCC(c3ccc(Oc4ncccn4)cc3)CC2)cc1NS(C)(=O)=O [Example 190, N-[2-methyl-5-[4-(4-pyrimidin-2-yloxyphenyl)piperidine-1-carbonyl]phenyl]methanesulfonamide]
63	N#Cc1ccc(C2CCN(C(=O)c3ccc(Cl)c(NS(=O)(=O)c4ccccc4F)c3)CC2)cc1 [Example 191, N-[2-chloro-5-[4-(4-cyanophenyl)piperidine-1-carbonyl]phenyl]-2-fluorobenzenesulfonamide]
67	N#Cc1ccc(C2CCN(C(=O)c3ccc(Cl)c(NS(=O)(=O)c4ccc(Cl)cc4)c3)CC2)cc1 [Example 192, 4-chloro-N-[2-chloro-5-[4-(4-cyanophenyl)piperidine-1-carbonyl]phenyl]benzene-sulfonamide]
70	Cc1ccc(C(=O)N2CCC(c3ccc(S(C)(=O)=O)cc3)CC2)cc1NS(=O)(=O)Cc1ccccc1 [Example 193, N-[2-methyl-5-[4-(4-methylsulfonylphenyl)piperidine-1-carbonyl]phenyl]-1-phenyl-methanesulfonamide]
69	N#Cc1ccc(C2CCN(C(=O)c3ccc(F)c(NS(=O)(=O)Cc4ccccc4)c3)CC2)cc1 [Example 194, N-[5-[4-(4-cyanophenyl)piperidine-1-carbonyl]-2-fluorophenyl]-1-phenylmethane-sulfonamide]
72	Cc1ccc(C(=O)N2CCC(c3ccc(C#N)cc3)CC2)cc1NS(=O)(=O)CS(C)(=O)=O [Example 195, N-[5-[4-(4-cyanophenyl)piperidine-1-carbonyl]-2-methylphenyl]-1-methylsulfonyl-methanesulfonamide]
96	N#Cc1ccc(C2CCN(C(=O)c3ccc(C#N)c(NS(=O)(=O)Cc4ccccc4)c3)CC2)cc1 [Example 196, N-[2-cyano-5-[4-(4-cyanophenyl)piperidine-1-carbonyl]phenyl]-1-phenylmethane-sulfonamide]
71	COc1ccc(NS(C)(=O)=O)cc1C(=O)N1CCC(c2ccc(C#N)cc2)CC1 [Example 197, N-[3-[4-(4-cyanophenyl)piperidine-1-carbonyl]-4-methoxyphenyl]methanesulfonamide]
79	N#Cc1ccc(C2CCN(C(=O)c3cc(NS(=O)(=O)Cc4ccccc4)ccc3F)CC2)cc1 [Example 199, N-[3-[4-(4-cyanophenyl)piperidine-1-carbonyl]-4-fluorophenyl]-1-phenylmethane-sulfonamide]
48	Cc1ccc(C(=O)N2CCC(O)(c3ccc(Br)cc3)CC2)cc1NS(C)(=O)=O [Example 200, N-[5-[4-(4-bromophenyl)-4-hydroxypiperidine-1-carbonyl]-2-methylphenyl]methane-sulfonamide]
68	Cc1ccc(C(=O)N2CCC(O)(c3ccc(Br)cc3)CC2)cc1NS(=O)(=O)Cc1ccccc1 [Example 201, N-[5-[4-(4-bromophenyl)-4-hydroxypiperidine-1-carbonyl]-2-methylphenyl]-1-phenylmethanesulfonamide]
90	Cc1ccc(C(=O)N2CCC(c3ccc(C#N)cc3)CC2)cc1NS(=O)(=O)CCc1ccccc1 [Example 202, N-[5-[4-(4-cyanophenyl)piperidine-1-carbonyl]-2-methylphenyl]-2-phenylethanesulfonamide]
71	CS(=O)(=O)Nc1cccc(C(=O)N2CCC(c3ccc(C#N)cc3)CC2)c1 [Example 203, N-[3-[4-(4-cyanophenyl)piperidine-1-carbonyl]phenyl]methanesulfonamide]
78	Cc1ccc(C(=O)N2CCC(c3ccc(C(=O)N(C)C)cc3)CC2)cc1NS(=O)(=O)Cc1ccccc1 [Example 204, 4-[1-[3-(benzylsulfonylamino)-4-methylbenzoyl]piperidin-4-yl]-N,N-dimethylbenzamide]
75	Cc1ccc(C(=O)N2CCC(c3ccc(C#N)cc3)CC2)cc1NS(=O)(=O)CCCO [Example 205, N-[5-[4-(4-cyanophenyl)piperidine-1-carbonyl]-2-methylphenyl]-3-hydroxypropane-1-sulfonamide]
76	Cc1ccc(C(=O)N2CCC(c3ccc(C#N)cc3)CC2)cc1NS(=O)(=O)c1ccccc1C(=O)N(C)C [Example 206, 2-[[5-[4-(4-cyanophenyl)piperidine-1-carbonyl]-2-methylphenyl]sulfamoyl]-N,N-dimethylbenzamide]

SMILES	inhibition at 100 µM [%]
CCCCOc1ccc(S(=O)(=O)Nc2ccc(C)c(C(=O)N3CCC(c4ccc(C#N)cc4)CC3)c2)cc1 [Example 198, 4-butoxy-N-[3-[4-(4-cyanophenyl)piperidine-1-carbonyl]-4-methylphenyl]benzene-sulfonamide]	71
